Assay results: patent US20260083865A1, “PROSTATE SPECIFIC MEMBRANE ANTIGEN (PSMA) LIGANDS AND USE THEREOF” (priority 2022, published 2026)
Numbered stars: 1 amine (or outer) side, 2 acyl side, 3 side chain; on linkers, the order of the positions; unused ones are H or OH. Bridge positions count the residues as written; N and C are the ends. Square brackets hold non-standard residues; d marks the D form. Peptide text beside a SMILES is read from it. * marks the point of attachment. ξ: configuration not given here. TtdsdLys(DOTA)NH2 = NC(=O)[C@@H](CCCCNC(=O)CN1CCN(CC(=O)O)CCN(CC(=O)O)CCN(CC(=O)O)CC1)NC(=O)CCC(=O)NCCCOCCOCCOCCCN*; X3 = O=C(O)CN1CCN(CC(=O)O)CCN(CC(=O)NCCCOCCOCCOCCCN*)CCN(CC(=O)O)CC1; DOTA = O=C(O)CN1CCN(CC(=O)O)CCN(CC(=O)*)CCN(CC(=O)O)CC1; Phe(4-Cl) = N[C@@H](Cc1ccc(Cl)cc1)C(=O)O; Arg(Me2s) = CN=C(NC)NCCC[C@H](N)C(=O)O; Phe(3-Me) = Cc1cccc(C[C@H](N)C(=O)O)c1; Arg(Me) = CNC(=N)NCCC[C@H](N)C(=O)O; X1 = O=C(CC1CCN([*:1])CC1)[*:2]; Lys(Me) = CNCCCC[C@H](N)C(=O)O; Suc = O=C(CCC(=O)[*:2])[*:1]; Tle = CC(C)(C)[C@H](N)C(=O)O; Propanoyl(3-OH) = O=C(CCO)*; αMeP = C[C@@]1(C(=O)O)CCCN1; Nle = CCCC[C@H](N)C(=O)O; Hexanoyl = CCCCCC(=O)*; ξD = NC(CC(=O)O)C(=O)O; AEEA = NCCOCCOCC(=O)O; Aib = CC(C)(N)C(=O)O

Key:
[1] = target: T1, PSMA-expressing C4-2 cells (Homo sapiens, UniProt Q04609); test: FACS binding assay (competition with 50 nM PSM-0183); conditions: pIC50 category of FACS binding, C4-2 cells; read-out: pIC50 [C4-2] CAT (converted)
T1 construct: PSMA-expressing C4-2 cells (ATCC, Cat. No. CRL-3314) were cultured in RPMI-1640; host or cells: C4-2 cells
In short: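 Competition format: fluorescent tracer PSM-0183 (50 nM) displaced from PSMA on C4-2 cells by a test compound titration over 1 h at 4 °C. Bound tracer was quantified as flow-cytometric AF488 median fluorescence after washing. Four-parameter logistic fits of MFI data gave IC50 and pIC50.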

[2] = target: T2, Fc-fusion protein of human PSMA (hPSMA-Fc) (Homo sapiens, UniProt Q04609); test: Surface plasmon resonance assay (Biacore T200, single cycle kinetic); type: binding; conditions: pKD category for PSMA SPR activity assay, hPSMA-Fc, 25° C.; read-out: pKD CAT (converted)
T2 construct: purchased Acro Biosystems PSA-H5264
In short: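 KD, expressed as pKD, came from 1:1 Langmuir fits of reference- and buffer-blank-subtracted SPR data. The runs were single-cycle kinetics at 25° C in HBST/0.1% DMSO over human PSMA-Fc, captured to ~1000 RU on a peptide-coated CM5 surface and regenerated with 10 mM glycine pH 1.5.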

T2 sequence (Q04609 44-750 limits assumed): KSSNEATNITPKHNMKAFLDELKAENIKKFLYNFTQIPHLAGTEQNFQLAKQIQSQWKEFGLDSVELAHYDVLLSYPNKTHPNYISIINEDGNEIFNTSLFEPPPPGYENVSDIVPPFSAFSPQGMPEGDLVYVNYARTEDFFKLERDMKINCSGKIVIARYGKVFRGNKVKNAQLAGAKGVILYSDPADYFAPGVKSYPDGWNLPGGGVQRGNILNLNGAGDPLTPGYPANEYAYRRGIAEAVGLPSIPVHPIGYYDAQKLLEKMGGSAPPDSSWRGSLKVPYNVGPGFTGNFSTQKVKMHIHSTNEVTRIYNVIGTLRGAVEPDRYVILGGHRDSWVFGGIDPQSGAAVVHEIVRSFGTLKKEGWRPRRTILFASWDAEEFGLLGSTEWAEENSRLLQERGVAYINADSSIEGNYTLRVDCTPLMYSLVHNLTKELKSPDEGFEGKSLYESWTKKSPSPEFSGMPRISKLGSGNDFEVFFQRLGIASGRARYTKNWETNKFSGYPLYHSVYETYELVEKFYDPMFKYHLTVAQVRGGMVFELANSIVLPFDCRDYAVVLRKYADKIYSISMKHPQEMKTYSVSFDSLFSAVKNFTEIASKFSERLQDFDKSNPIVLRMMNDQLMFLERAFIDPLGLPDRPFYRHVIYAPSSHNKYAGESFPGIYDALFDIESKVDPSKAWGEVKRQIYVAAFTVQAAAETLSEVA
T1 sequence (Q04609 whole entry): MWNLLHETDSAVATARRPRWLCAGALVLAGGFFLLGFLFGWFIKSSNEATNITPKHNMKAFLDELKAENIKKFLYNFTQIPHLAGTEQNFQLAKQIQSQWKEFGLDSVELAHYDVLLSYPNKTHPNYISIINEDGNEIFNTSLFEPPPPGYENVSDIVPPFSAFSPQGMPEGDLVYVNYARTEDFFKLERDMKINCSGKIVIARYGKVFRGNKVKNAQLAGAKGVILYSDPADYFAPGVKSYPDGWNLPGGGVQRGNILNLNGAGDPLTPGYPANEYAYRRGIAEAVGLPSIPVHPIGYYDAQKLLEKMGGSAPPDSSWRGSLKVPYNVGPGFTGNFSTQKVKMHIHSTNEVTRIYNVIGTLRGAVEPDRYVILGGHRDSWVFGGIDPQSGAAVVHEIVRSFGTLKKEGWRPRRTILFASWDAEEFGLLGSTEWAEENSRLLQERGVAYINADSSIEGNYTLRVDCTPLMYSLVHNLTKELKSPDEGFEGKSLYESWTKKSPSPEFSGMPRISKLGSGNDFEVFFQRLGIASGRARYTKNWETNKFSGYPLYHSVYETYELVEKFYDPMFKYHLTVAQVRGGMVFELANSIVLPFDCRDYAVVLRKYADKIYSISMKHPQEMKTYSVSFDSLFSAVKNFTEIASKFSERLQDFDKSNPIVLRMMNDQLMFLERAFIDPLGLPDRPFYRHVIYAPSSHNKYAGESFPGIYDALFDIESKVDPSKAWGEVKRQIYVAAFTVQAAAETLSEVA

Row | IC50 [1] [nM] | Kd [2] [nM] | SMILES
1 | < 200 | < 12.6 | CSCC[C@H](N)C(=O)N[C@H](C(=O)N[C@@H](C)C(=O)N[C@@H](Cc1ccccc1)C(=O)N[C@H]1CSSC[C@@H](C(=O)N[C@@H](CC(C)C)C(=O)N[C@H](C(=O)NC(CC(=O)O)C(=O)NCC(=O)N[C@@H](CO)C(N)=O)[C@@H](C)O)NC(=O)[C@H](CC(N)=O)NC(=O)[C@H](C)NC(=O)[C@H](CCCNC(=N)N)NC(=O)[C@H](CCCCN)NC1=O)[C@@H](C)O (stereo partly drawn) [PSM-0498, H-Met-Thr-Ala-Phe-[Cys-Lys-Arg-Ala-Asn-Cys]-Lou-Thr-Asp-Gly-Ser-NH2] (H-MTAFCKRANCLT[ξD]GS-NH2; disulfide 5-10)
2 | < 200 | < 12.6 | CCCC[C@H](NC(=O)[C@@H]1CSSC[C@H](NC(=O)[C@H](Cc2ccccc2)NC(=O)C(C)(C)NC(=O)[C@@H](NC(C)=O)[C@@H](C)O)C(=O)N[C@@H](CCCCN)C(=O)N[C@@H](CCCNC(=N)N)C(=O)N[C@@H](C)C(=O)N[C@@H](CC(N)=O)C(=O)N1)C(=O)N[C@H](C(=O)N[C@@H](CC(=O)O)C(N)=O)[C@@H](C)O [PSM-0501, Ac-Thr-Aib-Phe-[Cys-Lys-Arg-Ala-Asn-Cys]-Nle-Thr-Asp-NH2] (Ac-T[Aib]FCKRANC[Nle]TD-NH2; disulfide 4-9)
3 | < 200 | < 12.6 | CC(=O)NC(C)(C)C(=O)N[C@@H](Cc1ccccc1)C(=O)N[C@H]1CSSC[C@@H](C(=O)N[C@H](C(=O)N[C@H](C(=O)N[C@@H](CC(=O)O)C(N)=O)[C@@H](C)O)C(C)(C)C)NC(=O)[C@H](CC(N)=O)NC(=O)[C@H](C)NC(=O)[C@H](CCCNC(=N)N)NC(=O)[C@H](CCCCN)NC1=O [PSM-0506, Ac-Aib-Pho-[Cys-Lys-Arg-Ala-Asn-Cys]-Tle-Thr-Asp-NH2] (Ac-[Aib]FCKRANC[Tle]TD-NH2; disulfide 3-8)
4 | < 200 | 12.6 to 126 | C[C@@H](O)[C@H](NC(=O)[C@@H](NC(=O)[C@@H]1CSSC[C@H](NC(=O)[C@H](Cc2ccccc2)NC(=O)C(C)(C)NC(=O)CC2CCN(C(=O)CN3CCN(CC(=O)O)CCN(CC(=O)O)CCN(CC(=O)O)CC3)CC2)C(=O)N[C@@H](CCCCN)C(=O)N[C@@H](CCCNC(=N)N)C(=O)NC(C)(C)C(=O)N[C@@H](CC(N)=O)C(=O)N1)C(C)(C)C)C(N)=O [PSM-0507, DOTA-Cmp-Aib-Pho-[Cys-Lys-Arg-Aib-Asn-Cys]-Tle-Thr-NH2] ({DOTA}-[X1][Aib]FCKR[Aib]NC[Tle]T-NH2; disulfide 4-9)
5 | < 200 | < 12.6 | CC(=O)N[C@H](C(=O)N1CCC[C@@]1(C)C(=O)N[C@@H](Cc1ccccc1)C(=O)N[C@H]1CSSC[C@@H](C(=O)N[C@H](C(=O)N[C@H](C(N)=O)[C@@H](C)O)C(C)(C)C)NC(=O)[C@H](CC(N)=O)NC(=O)C(C)(C)NC(=O)[C@H](CCCNC(=N)N)NC(=O)[C@H](CCCCN)NC1=O)[C@@H](C)O [PSM-0508, Ac-Thr-Pam-Phe-[Cys-Lys-Arg-Aib-Asn-Cys]-Tle-Thr-NH2] (Ac-T[αMeP]FCKR[Aib]NC[Tle]T-NH2; disulfide 4-9)

The remaining lines, values behind:

Row | SMILES | IC50 [1] [nM] | Kd [2] [nM]
6 | C/N=C(/NC)NCCC[C@@H]1NC(=O)[C@H](CCCCNC)NC(=O)[C@@H](NC(=O)[C@H](Cc2ccc(Cl)cc2)NC(=O)C(C)(C)NC(=O)[C@@H](NC(=O)CC2CCN(C(=O)CN3CCN(CC(=O)O)CCN(CC(=O)O)CCN(CC(=O)O)CC3)CC2)[C@@H](C)O)CSSC[C@@H](C(=O)N[C@H](C(=O)N[C@H](C(N)=O)[C@@H](C)O)C(C)(C)C)NC(=O)[C@H](CC(N)=O)NC(=O)C(C)(C)NC1=O [PSM-0499, DOTA-Cmp-Thr-Aib-Pcf-[Cys-Lys(Me)-Egd-Aib-Asn-Cys]-Tle-Thr-NH2] ({DOTA}-[X1]T[Aib][Phe(4-Cl)]C[Lys(Me)][Arg(Me2s)][Aib]NC[Tle]T-NH2; disulfide 5-10) | < 200 | < 12.6
7 | CCCCCC(=O)N[C@H](C(=O)NC(C)(C)C(=O)N[C@@H](Cc1ccccc1)C(=O)N[C@H]1CSSC[C@@H](C(=O)N[C@H](C(=O)N[C@H](C(=O)N[C@@H](CC(=O)O)C(=O)NCCCOCCOCCOCCCNC(=O)CCC(=O)N[C@H](CCCCNC(=O)CN2CCN(CC(=O)O)CCN(CC(=O)O)CCN(CC(=O)O)CC2)C(N)=O)[C@@H](C)O)C(C)(C)C)NC(=O)[C@H](CC(N)=O)NC(=O)[C@H](C)NC(=O)[C@H](CCCNC(=N)N)NC(=O)[C@H](CCCCN)NC1=O)[C@@H](C)O [PSM-0502, Hex-Thr-Aib-Phe-[Cys-Lys-Arg-Ala-Asn-Cys]-Tle-Thr-Asp-Ttds-lys(DOTA)-NH2] (Hexanoyl-T[Aib]FCKRANC[Tle]TD-{TtdsdLys(DOTA)NH2}; disulfide 4-9) | < 200 | < 12.6
8 | CNCCCC[C@@H]1NC(=O)[C@@H](NC(=O)[C@H](Cc2cccc(C)c2)NC(=O)C(C)(C)NC(=O)[C@@H](NC(=O)CC2CCN(C(=O)CN3CCN(CC(=O)O)CCN(CC(=O)O)CCN(CC(=O)O)CC3)CC2)[C@@H](C)O)CSSC[C@@H](C(=O)N[C@H](C(N)=O)C(C)(C)C)NC(=O)[C@H](CC(N)=O)NC(=O)C(C)(C)NC(=O)[C@H](CCCNC(=N)NC)NC1=O [PSM-0503, DOTA-Cmp-Thr-Aib-Mmf-[Cys-Lys(Me)-Arg(Me)-Aib-Asn-Cys]-Tle-NH2] ({DOTA}-[X1]T[Aib][Phe(3-Me)]C[Lys(Me)][Arg(Me)][Aib]NC[Tle]-NH2; disulfide 5-10) | < 200 | 12.6 to 126
9 | CCCC[C@H](NC(=O)[C@@H]1CSSC[C@H](NC(=O)[C@H](Cc2ccccc2)NC(=O)[C@H](C)NC(=O)[C@@H](NC(=O)CCC(=O)NCCCOCCOCCOCCCNC(=O)CN2CCN(CC(=O)O)CCN(CC(=O)O)CCN(CC(=O)O)CC2)[C@@H](C)O)C(=O)N[C@@H](CCCCN)C(=O)N[C@@H](CCCNC(=N)N)C(=O)N[C@@H](C)C(=O)N[C@@H](CC(N)=O)C(=O)N1)C(=O)N[C@H](C(=O)N[C@@H](CC(=O)O)C(N)=O)[C@@H](C)O [PSM-0504, DOTA-Ttds-Thr-Ala-Phe-[Cys-Lys-Arg-Ala-Asn-Cys]-Nle-Thr-Asp-NH2] ({X3-Suc}-TAFCKRANC[Nle]TD-NH2; disulfide 4-9) | 200 to 1260 | 12.6 to 126
10 | C[C@@H](O)[C@H](NC(=O)[C@@H](NC(=O)[C@@H]1CSSC[C@H](NC(=O)[C@H](Cc2ccccc2)NC(=O)C(C)(C)NC(=O)[C@@H](NC(=O)COCCOCCNC(=O)CN2CCN(CC(=O)O)CCN(CC(=O)O)CCN(CC(=O)O)CC2)[C@@H](C)O)C(=O)N[C@@H](CCCCN)C(=O)N[C@@H](CCCNC(=N)N)C(=O)NC(C)(C)C(=O)N[C@@H](CC(N)=O)C(=O)N1)C(C)(C)C)C(N)=O [PSM-0505, DOTA-020c-Thr-Aib-Phe-[Cys-Lys-Arg-Aib-Asn-Cys]-Tle-Thr-NH2] ({DOTA-AEEA}-T[Aib]FCKR[Aib]NC[Tle]T-NH2; disulfide 4-9) | < 200 | < 12.6
11 | C[C@@H](O)[C@H](NC(=O)[C@@H](NC(=O)[C@@H]1CSSC[C@H](NC(=O)[C@H](Cc2ccc(Cl)cc2)NC(=O)C(C)(C)NC(=O)CCO)C(=O)N[C@@H](CCCCN)C(=O)N[C@@H](CCCNC(=N)N)C(=O)NC(C)(C)C(=O)N[C@@H](CC(N)=O)C(=O)N1)C(C)(C)C)C(=O)N1CCC(CC(=O)N[C@H](CCCCNC(=O)CN2CCN(CC(=O)O)CCN(CC(=O)O)CCN(CC(=O)O)CC2)C(N)=O)CC1 [PSM-0509, HPA-Aib-Pcf-[Cys-Lys-Arg-Aib-Asn-Cys]-Tle-Thr-Cmp-lys(DOTA)-NH2] ({Propanoyl(3-OH)}-[Aib][Phe(4-Cl)]CKR[Aib]NC[Tle]T[X1][dK](DOTA)-NH2; disulfide 3-8) | < 200 | < 12.6
